According to US20210038547A1, “NEW USES AND APPLICATIONS OF DICARBOXYLIC ACIDS” (JEMYLL LIMITED, priority 2017, published 2021):

Columns and labels:
[1] = system: Hy-Line Brown laying hens; experiment: Laying hens fed a standard diet or a diet enriched with C12 (10%): egg productivity, egg quality, yolk cholesterol; assay type: in vivo
Text: Thirty Hy-Line Brown laying hens, 18 weeks of age, were free range-raised under natural light and dark cycle. The hens were divided into 2 groups and housed in different indoor pens (0.15 m^2/bird) equipped with feeders and drinkers, with access to open air runs (3 m^2/bird).
The diets were based on wheat and soybean meal with added dodecanedioic acid (C12) at 10% in the DAs diet, while they were free of dodecanedioic acid in the control diet. The diets were isocaloric and isonitrogenous containing 17.0% of crude protein (CP) and 2,680 kcal of metabolizable energy/kg of diet, in fact they were designed to meet or exceed the nutrient requirements for laying hens. The experimental diet was fed to the animals for 12 weeks. Feed and water were provided ad libitum throughout the entire trial.
Hens mortality or morbidity were recorded if occurred. Eggs were collected daily and egg production was calculated on per hen and per day basis. Eggs with any adhering manure were classified as dirty, and the percentage was then calculated.
Eggs were analyzed for interior and exterior physical quality, and were also examined for shell quality by specific gravity. Shell thickness (with shell membrane) of the eggs (10% of the daily egg produced) was measured by micrometer. Shell thickness was a mean value of measurements at 3 locations on the eggs (air cell; equator; and, sharp end). The breaking strength of untracked eggs was determined with a testing machine (model 1140, Instron Ltd., Bucks, UK). Egg components (albumen; yolk; and, shell) were measured by weekly breakouts on two eggs per replicate pen and expressed as percentage of egg weight.
Egg yolk color was scored using the 15-point scale (color scale from 15, dark orange to 1, light pale) of the DSM yolk color fan (DSM Nutritional Products Ltd., Basel, Switzerland).
The yolk cholesterol concentrations were determined by sampling weekly egg yolks (1 g) saponified with 20 ml of 33% ethanolic KOH in tightly-capped tubes placed in a 60° C. water bath for 1 hour. The mixture was then cooled in ice water, and 5 ml of distilled water was added. Cholesterol in unsaponifiable fractions was extracted twice with 5 ml of hexane. The resulting aliquot of hexane containing cholesterol was dried under nitrogen, re-dissolved in 5 ml of hexane, and injected into a gas chromatograph (Hewlett Packard, Palo Alto, Calif., Palo Alto, Calif., USA).
5 α-cholestane (Sigma-Aldrich) was used as an internal standard. A split inlet (using a split ratio of 100:1) was used to inject samples into a capillary column (HP-5, Agilent, Steven, Calif., USA; 30 m×0.53 mm×0.5 μm). Temperature conditions were as follows: […] oven temperature of 270° C. isothermal; detector temperature of 300° C.; and, inlet temperature of 210° C. The gas carrier was N2 kept at a constant flow rate of 1.0 ml/min.
Data were analyzed using the statistical package SPSS 13. Comparisons were made by the Mann Whitney U test since data were not normally distributed.

barley = experiment: Hydroponic barley grown with C12 in the water medium: grain composition; conditions: 10 g C12/L of water (10% C12)
Description: (§1) Hydroponic barley and oat grass was growth in fodder sprouting chambers at 21.5 to 23.5° C., with humidity of 65±5% and water temperature between 20° and 22° C. Grains were soaked in water until fully saturated, then drained and placed in trays or troughs, to facilitate sprouting, for 5 to 8 days. The grains were kept moist during this period. Grains were initially washed with a sterilizing solution to help minimize the risk of mold. Grass were provided with […] from day 3. C12 (0.1% as acid, 14.9% as potassium salt, 60% as sodium salt, and 25% as calcium salt) was added to the water medium in different concentrations, varying from 0%, to 2.5%, 5%, 10%, 15% and 20%. We measured grain composition at 10 g C12 in 1 L of water.

oat = experiment: Hydroponic oat grown with C12 in the water medium: grain composition; conditions: 10 g C12/L of water (10% C12)
Description: as §1

SMILES: O=C(O)CCCCCCCCCCC(=O)O [C12, dodecanedioic acid]
- Yolk color ([1]; 10% C12 enriched diet vs standard diet): lighter color of the yolk
- Hen mortality or morbidity ([1]; 12 weeks of feeding): No hen mortality or morbidity was observed
- Dirty eggs (%) ([1]; diet with 10% C12 for 12 weeks): 0.38 ± 0.14%
- Egg mass (g/hen per day) ([1]; diet with 10% C12 for 12 weeks): 54.56 ± 5.66 g/hen per day
- Egg-laying rate (%) ([1]; diet with 10% C12 for 12 weeks): 90.30 ± 4.99%
- Cholesterol content ([1]; diet with 10% C12 for 12 weeks, egg yolk, gas chromatography, FIG. 3: per 100 g of egg, in mg/100 g egg): 87.00 ± 14.27
- Shell thickness (mm × 10^−2) ([1]; diet with 10% C12 for 12 weeks, mean of 3 locations, with shell membrane): 0.38 ± 0.037 mm × 10^−2
- content of C12 in a yolk ([1]; female, Hy-Line Brown, hen (chicken), in vivo, 12 weeks): in a yolk ranged between 0.35 and 2.1 mg.
- Ash % (barley): 3.40 ± 0.48%
- Crude Fibre % (barley): 4.42 ± 0.38%
- Crude Protein % (barley): 16.20 ± 0.62%
- Dry matter (%) (barley): 90.40 ± 1.14%
- Starch % (barley): 44.40 ± 3.51%
- Ash % (oat): 4.06 ± 0.59%
- Crude Fibre % (oat): 23.40 ± 4.04%
- Crude Protein % (oat): 18.70 ± 2.28%
- Dry matter (%) (oat): 90.00 ± 5.70%
- Starch % (oat): 31.80 ± 8.11%
